The source made the active and inactive calls.
How the values were obtained:
[1] = target: T1, Corticotropin-releasing factor receptor 2/Corticotropin-releasing factor-binding protein (Homo sapiens, UniProt P24387+Q13324); test: activators of CRF receptor 2 with binding protein – uHTS hits, confirmation (AID 602473); assay type: functional; details: read-out: EC50_Mean
T1 sequence (Q13324 whole entry): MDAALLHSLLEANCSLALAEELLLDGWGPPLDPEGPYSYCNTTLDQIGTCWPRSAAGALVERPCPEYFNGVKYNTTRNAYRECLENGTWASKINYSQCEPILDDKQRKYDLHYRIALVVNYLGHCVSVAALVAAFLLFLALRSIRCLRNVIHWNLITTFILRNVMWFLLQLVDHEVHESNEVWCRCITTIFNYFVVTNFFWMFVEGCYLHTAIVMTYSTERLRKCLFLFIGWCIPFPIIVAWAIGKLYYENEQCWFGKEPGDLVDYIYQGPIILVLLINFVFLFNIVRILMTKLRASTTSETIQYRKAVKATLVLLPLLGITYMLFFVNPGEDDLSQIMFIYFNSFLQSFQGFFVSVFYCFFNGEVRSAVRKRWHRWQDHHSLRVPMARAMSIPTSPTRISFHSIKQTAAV
T1 sequence (P24387 whole entry): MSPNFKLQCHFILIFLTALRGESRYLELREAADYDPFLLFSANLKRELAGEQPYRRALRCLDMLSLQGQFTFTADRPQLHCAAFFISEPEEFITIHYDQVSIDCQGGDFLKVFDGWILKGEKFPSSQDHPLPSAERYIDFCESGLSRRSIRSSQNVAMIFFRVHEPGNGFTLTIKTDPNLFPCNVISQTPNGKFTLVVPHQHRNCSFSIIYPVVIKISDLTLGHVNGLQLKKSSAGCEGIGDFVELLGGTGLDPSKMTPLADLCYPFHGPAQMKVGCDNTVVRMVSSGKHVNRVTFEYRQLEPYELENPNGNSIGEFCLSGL

[2] = target: T2, Carboxy-terminal domain RNA polymerase II polypeptide A small phosphatase 1 (Homo sapiens, UniProt Q9GZU7); test: inhibitors of CTDSP1, concentration-response testing, biochemical assay, absorbance-based, actives from ultra-high-throughput screening (AID 540297); assay type: functional
T2 sequence (Q9GZU7 whole entry): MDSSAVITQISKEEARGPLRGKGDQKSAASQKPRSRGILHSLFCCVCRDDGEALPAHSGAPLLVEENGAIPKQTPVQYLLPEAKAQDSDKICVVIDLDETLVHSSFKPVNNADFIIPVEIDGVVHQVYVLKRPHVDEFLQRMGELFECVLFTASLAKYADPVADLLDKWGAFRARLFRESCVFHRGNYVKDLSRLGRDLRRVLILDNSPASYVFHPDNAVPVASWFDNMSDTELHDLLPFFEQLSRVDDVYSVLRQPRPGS

[3] = target: T3, Replicative DNA helicase DnaB (Mycobacterium tuberculosis, UniProt P9WMR3); test: DnaB intein splicing inhibitors, dose response, biochemical, cell-free fluorescence (AID 449749); assay type: functional
T3 sequence (P9WMR3 whole entry): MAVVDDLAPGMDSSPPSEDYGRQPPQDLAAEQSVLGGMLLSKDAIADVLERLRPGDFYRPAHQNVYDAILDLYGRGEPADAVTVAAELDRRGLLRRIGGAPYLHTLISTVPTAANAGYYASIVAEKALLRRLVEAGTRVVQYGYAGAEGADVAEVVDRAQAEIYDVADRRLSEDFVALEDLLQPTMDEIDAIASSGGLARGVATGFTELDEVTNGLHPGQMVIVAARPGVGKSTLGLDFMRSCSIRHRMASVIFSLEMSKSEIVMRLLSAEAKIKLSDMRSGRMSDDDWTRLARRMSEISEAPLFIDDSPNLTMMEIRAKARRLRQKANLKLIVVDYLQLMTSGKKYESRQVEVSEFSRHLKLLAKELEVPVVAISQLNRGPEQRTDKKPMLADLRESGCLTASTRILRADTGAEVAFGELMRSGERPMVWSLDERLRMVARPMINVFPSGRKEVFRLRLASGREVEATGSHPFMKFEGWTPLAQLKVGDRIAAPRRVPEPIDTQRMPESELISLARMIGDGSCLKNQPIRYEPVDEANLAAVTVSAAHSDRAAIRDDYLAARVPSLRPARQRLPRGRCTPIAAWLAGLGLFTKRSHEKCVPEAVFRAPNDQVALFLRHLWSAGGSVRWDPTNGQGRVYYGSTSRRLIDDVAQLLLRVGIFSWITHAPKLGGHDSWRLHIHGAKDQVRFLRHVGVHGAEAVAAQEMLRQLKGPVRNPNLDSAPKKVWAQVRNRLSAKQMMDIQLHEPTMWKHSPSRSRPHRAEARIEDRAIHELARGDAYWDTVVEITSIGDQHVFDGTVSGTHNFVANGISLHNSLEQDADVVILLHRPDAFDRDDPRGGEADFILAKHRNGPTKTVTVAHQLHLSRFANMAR

[4] = target: T4, Protein RecA (Mycobacterium tuberculosis, UniProt P9WHJ3); test: Fluorescence Cell-Free Homogeneous Dose Retest to Identify Inhibitors of RecA-Intein Splicing Activity. [Related pubchem assays (depositor defined):AID2097, AID2223, AID489010, AID492950]; assay type: functional
T4 sequence (P9WHJ3 whole entry): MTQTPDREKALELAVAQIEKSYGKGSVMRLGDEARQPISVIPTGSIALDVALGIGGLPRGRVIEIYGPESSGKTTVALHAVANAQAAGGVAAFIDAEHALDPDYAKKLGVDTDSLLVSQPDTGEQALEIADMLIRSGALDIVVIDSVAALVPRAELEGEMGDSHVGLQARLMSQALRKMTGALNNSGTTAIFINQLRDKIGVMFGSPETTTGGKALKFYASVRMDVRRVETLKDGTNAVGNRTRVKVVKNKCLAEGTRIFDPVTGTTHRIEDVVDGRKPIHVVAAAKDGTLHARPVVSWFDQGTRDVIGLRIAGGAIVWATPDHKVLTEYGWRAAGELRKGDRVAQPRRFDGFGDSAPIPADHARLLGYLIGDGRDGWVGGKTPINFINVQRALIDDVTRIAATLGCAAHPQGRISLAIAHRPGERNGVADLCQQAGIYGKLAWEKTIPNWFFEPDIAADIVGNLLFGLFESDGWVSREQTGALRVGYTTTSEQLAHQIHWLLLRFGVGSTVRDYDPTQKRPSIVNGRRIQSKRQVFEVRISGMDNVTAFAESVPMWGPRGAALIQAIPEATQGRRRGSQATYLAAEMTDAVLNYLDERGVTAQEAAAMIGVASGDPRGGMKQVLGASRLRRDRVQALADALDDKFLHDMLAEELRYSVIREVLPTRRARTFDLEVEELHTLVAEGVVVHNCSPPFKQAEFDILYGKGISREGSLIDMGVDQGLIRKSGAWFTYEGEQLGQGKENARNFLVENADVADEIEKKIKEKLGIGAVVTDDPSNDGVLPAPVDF

[5] = test system: Vero; test: cells; assay type: functional; details: Chlorocebus sabaeus
[6] = target: Luciferin 4-monooxygenase (Photinus pyralis, UniProt P08659); test: firefly luciferase enzyme inhibitors, dose response, biochemical, luminescence (AID 1891)
[7] = target: Large T antigen (Simian virus 40, UniProt P03070); assay type: functional, Betapolyomavirus macacae;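 also: Confirmatory-stage PubChem screen for compounds that inhibit SV40 T antigen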
[8] = Luminescence Cell-Based Dose Confirmation HTS to Identify Inhibitors of Platelet Dense Granule Release. [Related pubchem assays: 1663 (Primary HTS), 1678 (Summary of Project)]; assay type: functional
[9] = target: T5, Zinc finger protein mex-5 (Caenorhabditis elegans, UniProt Q9XUB2); test: MEX-5/TCR-2 RNA interaction inhibitors, dose response, biochemical, C. elegans, fluorescence polarization (AID 1960)
T5 sequence (Q9XUB2 whole entry): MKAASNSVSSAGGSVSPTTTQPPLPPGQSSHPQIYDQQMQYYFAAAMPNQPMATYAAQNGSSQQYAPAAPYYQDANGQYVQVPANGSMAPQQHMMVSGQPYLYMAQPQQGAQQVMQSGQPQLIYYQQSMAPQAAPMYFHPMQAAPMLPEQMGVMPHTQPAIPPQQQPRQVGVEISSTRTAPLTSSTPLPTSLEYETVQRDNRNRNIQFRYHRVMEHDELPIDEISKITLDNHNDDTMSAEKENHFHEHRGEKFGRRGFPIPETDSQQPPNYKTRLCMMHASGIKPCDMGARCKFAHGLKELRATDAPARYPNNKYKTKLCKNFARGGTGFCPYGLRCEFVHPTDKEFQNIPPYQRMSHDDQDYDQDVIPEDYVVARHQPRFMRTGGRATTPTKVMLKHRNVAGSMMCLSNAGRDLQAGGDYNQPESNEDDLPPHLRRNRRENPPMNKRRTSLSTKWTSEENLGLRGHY

[10] = target: T6, RNA-binding protein pos-1 (Caenorhabditis elegans, UniProt G5EF15); test: inhibitors of POS-1/mex-3 RNA binding, dose response, biochemical, fluorescence polarization (AID 1964);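 also: purified POS-1 fused to maltose binding protein made in E. coli; potency of compounds blocking POS-1 binding to fluorescent RNA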
T6 sequence (G5EF15 whole entry): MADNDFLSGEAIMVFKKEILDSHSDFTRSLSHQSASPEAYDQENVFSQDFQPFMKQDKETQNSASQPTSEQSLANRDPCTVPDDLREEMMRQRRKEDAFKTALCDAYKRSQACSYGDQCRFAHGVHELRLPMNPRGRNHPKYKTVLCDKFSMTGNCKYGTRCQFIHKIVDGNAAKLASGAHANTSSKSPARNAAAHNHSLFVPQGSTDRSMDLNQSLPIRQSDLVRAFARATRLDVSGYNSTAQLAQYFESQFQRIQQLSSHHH

[11] = target: Heat shock protein HSP 90-alpha (Homo sapiens, UniProt P07900); assay type: functional, organism-based
[12] = Shn3 3'UTR reporter inhibitors, dose response, cell-based, Clone20 osteoblasts, firefly luciferase, cherry-picked (AID 624132); assay type: functional;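 also: firefly luciferase luminescence from reporter carrying the Shn3 3'UTR in osteoblasts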
[13] = control 3'UTR Renilla luciferase suppression, dose response, counter-screen for Shn3 inhibitor project, cell-based, Clone20-Shn3RL, cherry-picked (AID 624133); assay type: functional
[14] = target: Paired box protein Pax-8 (Homo sapiens, UniProt Q06710); test: inhibitors of PAX8-driven TPO luciferase reporter, dose response, RMG-I cells, cherry-pick (AID 687027); assay type: functional, cell-based;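 also: luciferase reporter driven by Pax8 target thyroperoxidase promoter measured by SteadyGlo luminescence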
Chain of Paired box protein Pax-8 (Q06710 whole entry): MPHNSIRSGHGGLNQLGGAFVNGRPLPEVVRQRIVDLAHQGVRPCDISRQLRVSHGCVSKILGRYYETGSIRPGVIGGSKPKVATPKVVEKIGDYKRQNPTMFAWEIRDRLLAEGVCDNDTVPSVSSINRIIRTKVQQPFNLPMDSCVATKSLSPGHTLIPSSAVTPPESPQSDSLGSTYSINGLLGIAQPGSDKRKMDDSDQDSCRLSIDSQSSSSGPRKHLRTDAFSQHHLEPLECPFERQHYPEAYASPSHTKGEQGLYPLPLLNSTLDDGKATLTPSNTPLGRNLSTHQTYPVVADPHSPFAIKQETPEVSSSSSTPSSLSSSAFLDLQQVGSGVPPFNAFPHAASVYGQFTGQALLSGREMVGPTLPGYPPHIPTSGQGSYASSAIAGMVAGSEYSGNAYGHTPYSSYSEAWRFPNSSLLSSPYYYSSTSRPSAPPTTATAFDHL

Chain of Luciferin 4-monooxygenase (P08659 whole entry): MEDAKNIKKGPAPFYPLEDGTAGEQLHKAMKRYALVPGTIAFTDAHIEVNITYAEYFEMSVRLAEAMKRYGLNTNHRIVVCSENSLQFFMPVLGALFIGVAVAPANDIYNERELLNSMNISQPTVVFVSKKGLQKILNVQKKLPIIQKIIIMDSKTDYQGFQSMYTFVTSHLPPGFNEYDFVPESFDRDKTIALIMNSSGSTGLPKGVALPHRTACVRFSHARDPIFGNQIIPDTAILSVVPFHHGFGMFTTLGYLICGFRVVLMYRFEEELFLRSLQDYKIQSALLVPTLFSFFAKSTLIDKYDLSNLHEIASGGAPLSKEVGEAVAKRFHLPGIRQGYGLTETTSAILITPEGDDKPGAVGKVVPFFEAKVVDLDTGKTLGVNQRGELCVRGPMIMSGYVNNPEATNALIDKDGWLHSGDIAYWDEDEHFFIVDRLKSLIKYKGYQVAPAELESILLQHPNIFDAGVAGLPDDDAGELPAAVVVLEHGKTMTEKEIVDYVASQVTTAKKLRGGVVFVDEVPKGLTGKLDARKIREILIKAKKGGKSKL
Chain of Large T antigen (P03070 whole entry): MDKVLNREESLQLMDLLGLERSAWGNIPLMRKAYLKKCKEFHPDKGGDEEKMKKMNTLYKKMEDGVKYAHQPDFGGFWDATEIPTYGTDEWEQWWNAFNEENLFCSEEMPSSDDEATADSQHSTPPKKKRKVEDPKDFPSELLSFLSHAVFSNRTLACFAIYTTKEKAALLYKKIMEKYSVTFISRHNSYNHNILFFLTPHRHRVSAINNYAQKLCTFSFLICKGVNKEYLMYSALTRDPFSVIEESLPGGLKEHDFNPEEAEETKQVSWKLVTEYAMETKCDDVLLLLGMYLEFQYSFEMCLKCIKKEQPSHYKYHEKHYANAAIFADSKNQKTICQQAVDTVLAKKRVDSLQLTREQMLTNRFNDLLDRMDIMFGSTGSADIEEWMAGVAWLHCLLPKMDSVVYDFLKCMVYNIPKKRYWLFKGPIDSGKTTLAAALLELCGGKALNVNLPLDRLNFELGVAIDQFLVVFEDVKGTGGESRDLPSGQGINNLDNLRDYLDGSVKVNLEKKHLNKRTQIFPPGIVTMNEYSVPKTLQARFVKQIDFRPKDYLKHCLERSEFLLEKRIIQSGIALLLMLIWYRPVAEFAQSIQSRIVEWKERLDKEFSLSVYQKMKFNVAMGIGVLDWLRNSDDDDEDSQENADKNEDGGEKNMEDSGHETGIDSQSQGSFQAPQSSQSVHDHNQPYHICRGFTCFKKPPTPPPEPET

CCN(C(=O)CN1C(=O)COc2ccc(S(=O)(=O)N3CCCCCC3)cc21)c1cccc(C)c1
EC50 [1]: 6.41 µM (active)

CC(C)(O)CCCC(C)(O)c1ccc(C(=O)O)cc1O (centres undefined)
IC50 [2]: 9.75 µM (active)

O=C(CCl)N1N=C(c2ccco2)CC1c1ccco1 (centres undefined)
AC50 [3]: > 380 µM (inactive)
EC50 [4]: 9.97 µM (active)
CC50 [5]: 9.82 µM (active)

CN(C)c1ccc(N/C=C/C(=O)c2ccccc2)cc1
EC50 [6]: 654 nM (active)
IC50 [7]: 5.19 µM (active)
EC50 [8]: 930 nM (active)

Cc1c(N/C=C2\C(=O)NC(=O)N(Cc3ccccc3)C2=O)c(=O)n(-c2ccccc2)n1C
EC50 [9]: > 300 µM (not active)
EC50 [10]: > 300 µM (not active)

Oc1ccccc1-c1nc(NC2CCCC2)c2ccccc2n1
AC50 [11]: 4.23 µM (active)

NC(=O)c1c(NC(=O)c2c(F)cccc2F)sc2c1CCN(Cc1ccccc1)C2
EC50 [9]: > 300 µM (not active)
EC50 [10]: 57.1 µM (active)

CCCc1ccc(C(=O)NNC(=O)c2ccc(Cl)cc2)cc1
IC50 [2]: 9.67 µM (active)

CC(=O)Nc1ccc(S(=O)(=O)N(C)CC(=O)OCC(=O)N2CCN(C(=O)c3ccco3)CC2)cc1
IC50 [2]: 9.38 µM (active)

CC1CCN(C2CC(=O)N(c3ccc(Br)cc3Br)C2=O)CC1 (centres undefined)
AC50 [11]: < 0.195 µM (active)

O=C(COc1ccc2oc(-c3ccccc3)cc(=O)c2c1)NCc1ccco1
IC50 [2]: 9.63 µM (active)

COc1ccccc1NC(=O)c1nn(-c2ccc(Cl)cc2)ccc1=O
IC50 [2]: 9.88 µM (active)

O=C(CCN1C(=O)/C(=C/c2cccs2)SC1=S)NC1=NCCS1
AC50 [11]: 5.03 µM (active)

COc1cccc(-c2ccc(NC(=O)C3CCCN(Cc4cnn(C(C)C)c4)C3)cc2)c1 (centres undefined)
CC50 [5]: > 25 µM (active)

CC(=O)c1c(C(C)=O)c(C)n(-c2ccc(C(=O)O)cc2)c1C
EC50 [9]: > 300 µM (not active)
EC50 [10]: > 300 µM (not active)

Cc1cc(C(F)(F)F)c2c(N)c(C(=O)Nc3cc(C)on3)sc2n1
EC50 [9]: 39.2 µM (active)
EC50 [10]: > 300 µM (inconclusive)

CN(O)C(=S)c1ccccc1
AC50 [11]: 0.521 µM (active)

O=C(NCCOC(=O)C1COc2ccccc2O1)c1cccnc1 (centres undefined)
EC50 [1]: > 53 µM (inactive)

C[N+]1(C2CCC3CCCC2C3O)CCCC1 (centres undefined)
IC50 [2]: 6.98 µM (active)

CCn1c(=O)c(NC(=O)c2ccccc2)c2n(c1=S)CCCCC2
IC50 [2]: 8.47 µM (active)

CC(=O)N1CCN(C(=O)CCc2cc(C(C)(C)C)c(O)c(C(C)(C)C)c2)CC1
AC50 [12]: 4.46 µM (active)
AC50 [13]: 14.5 µM (active)

Cc1ccc(-c2cc3nc(-c4ccccc4)cc(NCCCO)n3n2)cc1
CC50 [5]: > 25 µM (active)

C#CCN(C[C@H]1[C@H](OC(=O)Nc2c(C)noc2C)[C@H](OC(=O)Nc2c(C)noc2C)C[C@@H](C(=O)OC)[C@H]1C(=O)OC)S(=O)(=O)c1ccc(C)cc1
AC50 [14]: 31.9 µM (active)

C[C@H]1CCCCO[C@@H](CN(C)C)[C@@H](C)CN([C@@H](C)CO)C(=O)c2cc(NC(=O)Nc3ccc(C(F)(F)F)cc3)ccc2O1
AC50 [14]: 22.1 µM (active)

C[C@@H]1CCCCO[C@H](CN(C)C(=O)Nc2ccc(F)cc2)[C@@H](C)CN([C@@H](C)CO)C(=O)c2cc(NC(=O)Nc3ccc(C(F)(F)F)cc3)ccc2O1
AC50 [14]: 2.58 µM (active)

C[C@@H]1CCCCO[C@H](CN(C)Cc2ccc(C(F)(F)F)cc2)[C@H](C)CN([C@H](C)CO)C(=O)c2cc(NS(=O)(=O)c3ccc(F)cc3)ccc2O1
AC50 [14]: 6.71 µM (active)

COc1ccc(OC)c(/N=C/c2c(O)oc3ccccc3c2=O)c1
EC50 [9]: > 300 µM (inconclusive)
EC50 [10]: > 300 µM (inconclusive)

COc1ccc(C2CC(=O)C(/C=N/CCCO)=C(O)C2)cc1 (centres undefined)
EC50 [9]: 37.9 µM (active)
EC50 [10]: 34.8 µM (active)

From ChEMBL document CHEMBL1201862, “PubChem BioAssay data set” (2004)
